Data reported in ChEMBL document CHEMBL4507268 (2021).

Assays:
[1] = target: Interleukin-1 receptor-associated kinase 3 (Homo sapiens) (UniProt Q9Y616); settings: Compound concentration 1000.0 nM
[2] = test system: Tyrosine-protein kinase ABL1 (Homo sapiens), P00519 [F317L]; settings: Compound concentration 1000.0 nM
[3] = target: Phosphatidylinositol 5-phosphate 4-kinase type-2 gamma (Homo sapiens) (UniProt Q8TBX8); settings: Compound concentration 1000.0 nM
[4] = target: Membrane-associated tyrosine- and threonine-specific cdc2-inhibitory kinase (Homo sapiens) (UniProt Q99640); settings: Compound concentration 1000.0 nM
Chain of Membrane-associated tyrosine- and threonine-specific cdc2-inhibitory kinase (Homo sapiens) (Q99640 whole entry): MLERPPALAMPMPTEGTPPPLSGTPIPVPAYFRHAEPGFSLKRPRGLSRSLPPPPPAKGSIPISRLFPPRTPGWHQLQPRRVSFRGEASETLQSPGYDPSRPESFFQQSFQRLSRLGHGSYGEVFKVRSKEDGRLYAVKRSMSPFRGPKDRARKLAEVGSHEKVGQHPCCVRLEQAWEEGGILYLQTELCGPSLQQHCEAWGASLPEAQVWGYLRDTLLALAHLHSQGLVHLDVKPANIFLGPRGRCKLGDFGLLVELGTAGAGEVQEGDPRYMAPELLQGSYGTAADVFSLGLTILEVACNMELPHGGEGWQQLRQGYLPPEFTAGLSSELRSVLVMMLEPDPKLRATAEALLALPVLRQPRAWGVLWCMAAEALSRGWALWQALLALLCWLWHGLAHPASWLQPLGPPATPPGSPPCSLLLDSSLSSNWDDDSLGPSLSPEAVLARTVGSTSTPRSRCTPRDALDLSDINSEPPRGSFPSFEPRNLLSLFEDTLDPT

[5] = target: Myosin light chain kinase family member 4 (Homo sapiens) (UniProt Q86YV6); settings: Compound concentration 1000.0 nM
Chain of Myosin light chain kinase family member 4 (Homo sapiens) (Q86YV6 whole entry): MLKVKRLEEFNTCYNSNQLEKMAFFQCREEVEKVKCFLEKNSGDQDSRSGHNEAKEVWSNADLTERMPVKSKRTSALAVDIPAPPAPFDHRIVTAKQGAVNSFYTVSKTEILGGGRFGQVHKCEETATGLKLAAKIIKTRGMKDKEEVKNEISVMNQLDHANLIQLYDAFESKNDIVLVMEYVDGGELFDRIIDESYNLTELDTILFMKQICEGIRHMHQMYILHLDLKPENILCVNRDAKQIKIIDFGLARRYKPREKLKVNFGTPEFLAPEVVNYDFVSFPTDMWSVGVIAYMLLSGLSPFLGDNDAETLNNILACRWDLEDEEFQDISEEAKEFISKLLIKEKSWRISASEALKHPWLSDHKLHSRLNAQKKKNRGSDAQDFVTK

[6] = target: T1, SNF-related serine/threonine-protein kinase (Homo sapiens) (UniProt Q9NRH2); settings: Compound concentration 1000.0 nM
T1 sequence (whole entry): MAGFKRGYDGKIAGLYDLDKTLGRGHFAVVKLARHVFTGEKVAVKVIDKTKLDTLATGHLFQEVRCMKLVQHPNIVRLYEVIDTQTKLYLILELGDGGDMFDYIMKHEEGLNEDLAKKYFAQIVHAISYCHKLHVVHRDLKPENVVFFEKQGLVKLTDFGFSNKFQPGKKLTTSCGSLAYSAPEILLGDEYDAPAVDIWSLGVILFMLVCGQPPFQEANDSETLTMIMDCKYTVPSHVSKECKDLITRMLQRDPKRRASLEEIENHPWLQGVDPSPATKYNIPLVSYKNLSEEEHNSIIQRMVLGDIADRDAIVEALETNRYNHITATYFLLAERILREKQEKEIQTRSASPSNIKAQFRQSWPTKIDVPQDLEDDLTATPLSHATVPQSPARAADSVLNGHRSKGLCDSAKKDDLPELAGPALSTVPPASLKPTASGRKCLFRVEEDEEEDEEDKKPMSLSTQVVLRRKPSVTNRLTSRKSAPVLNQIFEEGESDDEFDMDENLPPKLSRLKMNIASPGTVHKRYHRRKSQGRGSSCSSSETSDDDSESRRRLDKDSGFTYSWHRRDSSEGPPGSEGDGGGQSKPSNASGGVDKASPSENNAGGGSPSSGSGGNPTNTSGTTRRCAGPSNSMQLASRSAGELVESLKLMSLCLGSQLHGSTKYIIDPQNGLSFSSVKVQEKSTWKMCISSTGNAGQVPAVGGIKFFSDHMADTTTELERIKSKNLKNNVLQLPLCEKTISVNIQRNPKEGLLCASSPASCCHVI

[7] = test system: Tyrosine-protein kinase ABL1 (Homo sapiens), P00519 [T315I]; settings: Compound concentration 1000.0 nM
[8] = target: T2, Cyclin-dependent kinase-like 2 (Homo sapiens) (UniProt Q92772); settings: Compound concentration 1000.0 nM
T2 sequence (whole entry): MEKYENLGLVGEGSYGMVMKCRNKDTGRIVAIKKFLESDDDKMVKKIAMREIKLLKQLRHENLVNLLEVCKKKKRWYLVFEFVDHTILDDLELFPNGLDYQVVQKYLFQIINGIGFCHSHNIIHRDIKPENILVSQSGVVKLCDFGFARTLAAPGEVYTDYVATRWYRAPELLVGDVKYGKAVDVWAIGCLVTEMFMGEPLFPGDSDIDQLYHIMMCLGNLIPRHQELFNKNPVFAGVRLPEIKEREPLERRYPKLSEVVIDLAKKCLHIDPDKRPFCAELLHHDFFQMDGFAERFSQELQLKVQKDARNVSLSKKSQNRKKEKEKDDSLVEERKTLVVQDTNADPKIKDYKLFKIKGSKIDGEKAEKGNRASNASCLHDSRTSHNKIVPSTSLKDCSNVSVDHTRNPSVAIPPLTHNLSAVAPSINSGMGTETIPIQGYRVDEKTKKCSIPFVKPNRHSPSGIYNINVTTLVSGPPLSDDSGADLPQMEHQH

[9] = target: Ribosomal protein S6 kinase alpha-6 (Homo sapiens) (UniProt Q9UK32); settings: Compound concentration 1000.0 nM
[10] = target: Serine/threonine-protein kinase PLK1 (Homo sapiens) (UniProt P53350); settings: Compound concentration 1000.0 nM
Chain of Serine/threonine-protein kinase PLK1 (Homo sapiens) (P53350 whole entry): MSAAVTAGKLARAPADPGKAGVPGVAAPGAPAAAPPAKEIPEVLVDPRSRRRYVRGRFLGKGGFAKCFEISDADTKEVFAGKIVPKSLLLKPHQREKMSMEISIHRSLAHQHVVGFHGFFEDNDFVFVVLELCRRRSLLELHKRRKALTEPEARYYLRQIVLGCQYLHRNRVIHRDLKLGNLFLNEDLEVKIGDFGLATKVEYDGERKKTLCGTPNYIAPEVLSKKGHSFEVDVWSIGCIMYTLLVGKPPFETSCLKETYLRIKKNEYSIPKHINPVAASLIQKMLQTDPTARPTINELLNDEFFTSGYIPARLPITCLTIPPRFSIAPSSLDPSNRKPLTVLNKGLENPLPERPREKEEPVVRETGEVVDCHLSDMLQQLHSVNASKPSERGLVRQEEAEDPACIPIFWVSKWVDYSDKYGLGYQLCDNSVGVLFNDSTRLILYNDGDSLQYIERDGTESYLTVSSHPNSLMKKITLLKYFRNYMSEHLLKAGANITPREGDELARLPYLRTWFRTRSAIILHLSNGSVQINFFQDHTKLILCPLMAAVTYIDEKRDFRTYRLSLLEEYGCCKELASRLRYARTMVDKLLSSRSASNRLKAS

[11] = target: Dual specificity mitogen-activated protein kinase kinase 5 (Homo sapiens) (UniProt Q13163); settings: Compound concentration 1000.0 nM
Chain of Dual specificity mitogen-activated protein kinase kinase 5 (Homo sapiens) (Q13163 whole entry): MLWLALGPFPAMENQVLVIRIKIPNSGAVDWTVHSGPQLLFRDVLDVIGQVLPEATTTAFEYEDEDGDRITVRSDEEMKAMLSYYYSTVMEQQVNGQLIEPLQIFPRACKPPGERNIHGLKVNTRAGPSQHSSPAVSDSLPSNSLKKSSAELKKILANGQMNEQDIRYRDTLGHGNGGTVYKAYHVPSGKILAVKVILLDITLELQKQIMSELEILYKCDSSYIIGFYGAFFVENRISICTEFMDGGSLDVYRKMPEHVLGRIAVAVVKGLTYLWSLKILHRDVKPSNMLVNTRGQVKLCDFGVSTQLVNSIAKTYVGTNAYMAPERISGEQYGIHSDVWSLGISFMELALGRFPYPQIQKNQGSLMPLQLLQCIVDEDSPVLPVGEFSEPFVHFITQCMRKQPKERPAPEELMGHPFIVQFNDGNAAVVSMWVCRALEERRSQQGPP

[12] = target: Serine/threonine-protein kinase 26 (Homo sapiens) (UniProt Q9P289); settings: Compound concentration 1000.0 nM
Chain of Serine/threonine-protein kinase 26 (Homo sapiens) (Q9P289 2-416 limits assumed): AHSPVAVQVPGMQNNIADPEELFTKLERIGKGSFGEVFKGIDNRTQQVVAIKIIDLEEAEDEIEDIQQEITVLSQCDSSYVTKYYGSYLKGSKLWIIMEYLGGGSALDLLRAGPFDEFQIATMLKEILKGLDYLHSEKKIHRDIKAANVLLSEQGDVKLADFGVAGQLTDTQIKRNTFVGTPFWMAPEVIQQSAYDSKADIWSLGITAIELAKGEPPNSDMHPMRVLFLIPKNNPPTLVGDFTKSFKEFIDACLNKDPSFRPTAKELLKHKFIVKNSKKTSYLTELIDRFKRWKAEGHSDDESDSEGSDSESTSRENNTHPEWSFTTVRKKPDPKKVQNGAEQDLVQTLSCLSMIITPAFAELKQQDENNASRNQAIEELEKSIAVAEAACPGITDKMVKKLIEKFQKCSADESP

[13] = target: Histamine H1 receptor (Homo sapiens) (UniProt P35367); settings: Compound concentration 10.0 uM
[14] = target: Mast/stem cell growth factor receptor Kit (Homo sapiens) (UniProt P10721); settings: Compound concentration 1000.0 nM
Chain of Mast/stem cell growth factor receptor Kit (Homo sapiens) (P10721 whole entry): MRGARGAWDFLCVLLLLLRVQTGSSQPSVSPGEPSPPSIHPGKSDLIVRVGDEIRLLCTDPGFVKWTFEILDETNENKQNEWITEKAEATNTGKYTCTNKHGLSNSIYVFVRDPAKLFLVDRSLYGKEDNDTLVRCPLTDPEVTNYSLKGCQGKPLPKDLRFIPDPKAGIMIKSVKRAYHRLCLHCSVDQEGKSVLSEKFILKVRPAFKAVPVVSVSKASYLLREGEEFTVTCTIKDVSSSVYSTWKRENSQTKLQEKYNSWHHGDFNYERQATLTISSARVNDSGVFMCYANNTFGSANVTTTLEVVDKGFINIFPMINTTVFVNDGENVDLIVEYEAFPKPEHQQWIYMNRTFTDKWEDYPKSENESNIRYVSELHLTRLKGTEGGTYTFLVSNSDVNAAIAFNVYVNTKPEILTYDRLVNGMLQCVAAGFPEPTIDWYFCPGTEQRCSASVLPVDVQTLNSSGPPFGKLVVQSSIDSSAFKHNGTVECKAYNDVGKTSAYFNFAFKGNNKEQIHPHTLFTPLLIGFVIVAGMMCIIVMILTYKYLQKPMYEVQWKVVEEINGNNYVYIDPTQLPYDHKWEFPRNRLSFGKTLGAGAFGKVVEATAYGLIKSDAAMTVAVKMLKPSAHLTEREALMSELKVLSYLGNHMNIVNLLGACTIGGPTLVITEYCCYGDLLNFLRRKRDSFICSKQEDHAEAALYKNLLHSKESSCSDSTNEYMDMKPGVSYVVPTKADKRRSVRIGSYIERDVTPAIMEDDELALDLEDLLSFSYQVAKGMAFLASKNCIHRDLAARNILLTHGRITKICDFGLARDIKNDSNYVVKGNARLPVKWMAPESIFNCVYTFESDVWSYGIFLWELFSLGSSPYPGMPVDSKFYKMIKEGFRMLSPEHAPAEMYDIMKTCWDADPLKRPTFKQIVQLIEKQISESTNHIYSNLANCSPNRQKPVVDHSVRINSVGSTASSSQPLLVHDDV

[15] = target: T3, Inhibitor of nuclear factor kappa-B kinase subunit epsilon (Homo sapiens) (UniProt Q14164); settings: Compound concentration 1000.0 nM
T3 sequence (whole entry): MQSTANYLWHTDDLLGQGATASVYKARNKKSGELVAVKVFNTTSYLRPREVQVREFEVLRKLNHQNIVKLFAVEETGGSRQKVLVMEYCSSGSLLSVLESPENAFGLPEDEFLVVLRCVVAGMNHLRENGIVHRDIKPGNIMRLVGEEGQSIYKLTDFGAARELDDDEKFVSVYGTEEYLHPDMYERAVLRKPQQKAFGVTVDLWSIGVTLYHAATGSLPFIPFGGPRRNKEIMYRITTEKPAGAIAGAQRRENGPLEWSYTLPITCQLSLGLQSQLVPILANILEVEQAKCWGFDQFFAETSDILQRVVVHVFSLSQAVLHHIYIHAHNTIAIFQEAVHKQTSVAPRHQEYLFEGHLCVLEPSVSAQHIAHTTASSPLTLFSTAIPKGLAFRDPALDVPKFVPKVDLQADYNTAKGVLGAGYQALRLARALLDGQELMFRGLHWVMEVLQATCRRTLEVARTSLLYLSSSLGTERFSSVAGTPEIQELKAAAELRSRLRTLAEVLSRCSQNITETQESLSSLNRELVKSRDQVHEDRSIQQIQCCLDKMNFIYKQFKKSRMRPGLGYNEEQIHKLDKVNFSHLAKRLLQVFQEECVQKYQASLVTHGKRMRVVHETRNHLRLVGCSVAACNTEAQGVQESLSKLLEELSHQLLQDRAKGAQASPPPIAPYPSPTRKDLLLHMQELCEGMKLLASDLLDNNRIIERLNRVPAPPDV

[16] = target: Glycogen synthase kinase-3 alpha (Homo sapiens) (UniProt P49840); settings: Compound concentration 1000.0 nM
Chain of Glycogen synthase kinase-3 alpha (Homo sapiens) (P49840 2-483 limits assumed): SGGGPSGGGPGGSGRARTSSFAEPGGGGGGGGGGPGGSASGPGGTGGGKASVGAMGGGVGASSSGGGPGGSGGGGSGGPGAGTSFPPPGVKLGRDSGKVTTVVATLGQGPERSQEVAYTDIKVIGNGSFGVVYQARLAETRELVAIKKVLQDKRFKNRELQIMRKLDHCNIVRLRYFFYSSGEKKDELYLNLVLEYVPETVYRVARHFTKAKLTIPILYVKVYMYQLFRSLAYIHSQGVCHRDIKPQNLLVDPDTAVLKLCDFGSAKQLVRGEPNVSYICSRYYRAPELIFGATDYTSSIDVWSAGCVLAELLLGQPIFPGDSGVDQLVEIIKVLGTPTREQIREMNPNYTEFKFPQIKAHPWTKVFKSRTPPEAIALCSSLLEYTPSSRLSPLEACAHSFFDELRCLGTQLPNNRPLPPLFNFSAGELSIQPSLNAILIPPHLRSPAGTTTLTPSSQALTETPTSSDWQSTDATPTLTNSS

[17] = target: Ribosomal protein S6 kinase alpha-2 (Homo sapiens) (UniProt Q15349); settings: Compound concentration 1000.0 nM
Chain of Ribosomal protein S6 kinase alpha-2 (Homo sapiens) (Q15349 whole entry): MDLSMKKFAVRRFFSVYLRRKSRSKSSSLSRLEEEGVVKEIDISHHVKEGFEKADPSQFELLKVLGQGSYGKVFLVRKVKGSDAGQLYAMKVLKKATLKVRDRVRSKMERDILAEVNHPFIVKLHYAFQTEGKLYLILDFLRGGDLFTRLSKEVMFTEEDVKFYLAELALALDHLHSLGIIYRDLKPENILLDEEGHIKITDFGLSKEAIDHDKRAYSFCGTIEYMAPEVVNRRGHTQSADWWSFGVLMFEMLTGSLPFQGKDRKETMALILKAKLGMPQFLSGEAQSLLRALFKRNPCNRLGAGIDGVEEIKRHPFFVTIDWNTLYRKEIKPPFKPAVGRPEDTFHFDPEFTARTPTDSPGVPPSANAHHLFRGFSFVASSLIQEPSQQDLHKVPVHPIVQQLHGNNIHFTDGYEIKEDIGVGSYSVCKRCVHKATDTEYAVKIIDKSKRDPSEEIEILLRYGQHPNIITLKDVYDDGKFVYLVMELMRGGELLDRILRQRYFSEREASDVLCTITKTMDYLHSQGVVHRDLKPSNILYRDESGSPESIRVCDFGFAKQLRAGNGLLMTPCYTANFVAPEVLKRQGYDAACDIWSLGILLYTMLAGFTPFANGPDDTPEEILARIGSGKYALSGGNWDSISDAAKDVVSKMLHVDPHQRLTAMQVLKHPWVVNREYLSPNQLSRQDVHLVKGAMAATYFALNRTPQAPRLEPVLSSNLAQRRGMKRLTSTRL

Chain of Phosphatidylinositol 5-phosphate 4-kinase type-2 gamma (Homo sapiens) (Q8TBX8 whole entry): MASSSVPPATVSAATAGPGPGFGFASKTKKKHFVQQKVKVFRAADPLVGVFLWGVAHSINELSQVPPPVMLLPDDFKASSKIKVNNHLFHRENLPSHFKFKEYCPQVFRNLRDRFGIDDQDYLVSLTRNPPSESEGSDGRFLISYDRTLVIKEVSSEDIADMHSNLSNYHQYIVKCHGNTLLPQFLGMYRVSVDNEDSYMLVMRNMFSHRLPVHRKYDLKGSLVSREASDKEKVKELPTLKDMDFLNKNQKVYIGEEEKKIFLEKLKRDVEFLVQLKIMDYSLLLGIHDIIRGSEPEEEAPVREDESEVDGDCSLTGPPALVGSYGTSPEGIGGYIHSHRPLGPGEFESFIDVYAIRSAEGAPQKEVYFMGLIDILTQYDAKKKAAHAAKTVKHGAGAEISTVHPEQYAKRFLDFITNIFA

Cc1nc(C2CCN(C(=O)c3ccc(OC(F)(F)F)cc3N)CC2)c2ncc(N3CCN(C)CC3)cc2n1 [BAY-693]
inactive: residual activity [1] 99% | residual activity [2] 96% | residual activity [3] 100% | residual activity [4] 100% | residual activity [5] 100% | residual activity [6] 78% | residual activity [7] 89% | residual activity [8] 100% | residual activity [9] 100% | residual activity [10] 79% | residual activity [11] 83% | residual activity [12] 100% | inhibition [13] 4.99% | residual activity [14] 90% | residual activity [15] 97% | residual activity [16] 85% | residual activity [17] 100%

CN1CCN(c2cnc3c(C4CCN(C(=O)c5ccc(OC(F)(F)F)cc5N)CC4)ncnc3c2)CC1 [BAY-885]
inactive: residual activity [1] 100% | residual activity [2] 100% | residual activity [3] 100% | residual activity [4] 100% | residual activity [5] 100% | residual activity [6] 87% | residual activity [7] 100% | residual activity [8] 100% | residual activity [9] 100% | residual activity [10] 93% | residual activity [11] 86% | residual activity [12] 98% | inhibition [13] 14.6% | residual activity [14] 98% | residual activity [15] 98% | residual activity [16] 100% | residual activity [17] 100%
